Laboratory results from patent publication US20100004257A1 (University of South Floria, priority 2007, published 2010).

What was measured:
[1] = test system: A549 cells; experiment: MTT assay after 120 hours, IC50; assay type: cell-based; conditions: Homo sapiens, A549, 120 h, read-out: EGFR TKI IC50 (Nm)
Source text: Cell lines and cell culture. […] Gefitinib was provided by AstraZeneca (Wilmington, Del.) and dasatinib by Bristol-Myers Squibb Oncology (Princeton, N.J.).
Cytotoxicity and apoptosis assays. Cytotoxicity assays [3-(4,5-dimethylthiazol-2-yl)-2,5-diphenyltetrazolium bromide] were done according to the manufacturer's recommendations (Roche, Indianapolis, Ind.). Cells (5×10^3) in medium with 5% BCS were placed into single wells in a 96-well plate and exposed to indicated agents, and viability was assessed after 72 hours. Data presented represent three separate experiments with eight data points per concentration per experiment. […] Data are expressed as mean±SD.

[2] = test system: H1299 cells; experiment: MTT assay after 120 hours, IC50; assay type: cell-based, Human; conditions: Homo sapiens, NCI-H1299, 120 h, read-out: EGFR TKI IC50 (Nm)
Source text: (§1) Cell lines and cell culture. Human lung cancer cell lines were maintained in RPMI 1640 plus 5% bovine calf serum (BCS). H3255 cells were provided by Dr. Pasi Janne (Dana-Farber, Boston, Mass.) and grown in ACL-4 medium (12). HCC827 cells were provided by Dr. Jon Kurie (M. D. Anderson, Houston, Tex.). PC9 cells were provided by Dr. Matthew Lazzara (Massachusetts Institute of Technology, Boston, Mass.). […]. Gefitinib was provided by AstraZeneca (Wilmington, Del.) and dasatinib by Bristol-Myers Squibb Oncology (Princeton, N.J.). For cell transfection experiments, 2×10^6 HEK293 cells in a 6-cm dish maintained in DMEM/10% BCS were transfected with 1 Ag plasmid DNA for 3 hours using LipofectAMINE 2000 (Invitrogen, Carlsbad, Calif.) and then allowed to go 24 hours before being treated with inhibitors.
(§2) Cytotoxicity and apoptosis assays. Cytotoxicity assays [3-(4,5-dimethylthiazol-2-yl)-2,5-diphenyltetrazolium bromide] were done according to the manufacturer's recommendations (Roche, Indianapolis, Ind.). […] Data presented represent three separate experiments with eight data points per concentration per experiment. Apoptosis [PharMingen (San Diego, Calif.) Apo-BrdU kit] and cell cycle changes (propidium iodide staining and flow cytometry) were assayed as before (13). Data are expressed as mean±SD.

[3] = test system: H157 cells; experiment: MTT assay after 120 hours, IC50; assay type: cell-based, Human; conditions: Homo sapiens, NCI-H157, 120 h, read-out: EGFR TKI IC50 (Nm)
Source text: as §1, §2

[4] = test system: H1648 cells; experiment: MTT assay after 120 hours, IC50; assay type: cell-based, Human
Source text: as §1, §2

[5] = test system: H292 cells; experiment: MTT assay after 120 hours, IC50; assay type: cell-based, Human
Source text: as §1, §2

[6] = test system: H322 cells; experiment: MTT assay after 120 hours, IC50; assay type: cell-based, Human
Source text: as §1, §2

[7] = test system: H358 cells; experiment: MTT assay after 120 hours, IC50; assay type: cell-based, Human
Source text: as §1, §2

[8] = test system: H2122 cells; experiment: MTT assay after 120 hours, IC50; assay type: cell-based; conditions: Homo sapiens, NCI-H2122, 120 h, read-out: EGFR TKI IC50 (Nm)
Source text: as §1, §2

[9] = test system: H226 cells; experiment: MTT assay after 120 hours, IC50; assay type: cell-based; conditions: Homo sapiens, NCI-H226, 120 h, read-out: EGFR TKI IC50 (Nm)
Source text: as §1, §2

[10] = test system: H23 cells; experiment: MTT assay after 120 hours, IC50; assay type: cell-based; conditions: Homo sapiens, NCI-H23, 120 h, read-out: EGFR TKI IC50 (Nm)
Source text: as §1, §2

[11] = test system: H441 cells; experiment: MTT assay after 120 hours, IC50; assay type: cell-based; conditions: Homo sapiens, NCI-H441, 120 h, read-out: EGFR TKI IC50 (Nm)
Source text: as §1, §2

[12] = test system: H460 cells; experiment: MTT assay after 120 hours, IC50; assay type: cell-based; conditions: Homo sapiens, NCI-H460, 120 h, read-out: EGFR TKI IC50 (Nm)
Source text: as §1, §2

[13] = test system: H441 cells; experiment: Combination effect in cell viability assays, median dose effect method; assay type: cell-based, Human; conditions: dose range used
Description: Combination effects were evaluated by median dose effect method.

[14] = test system: lung cancer cells with EGFR mutation that are resistant to EGFR TKI; experiment: Apoptosis and cell cycle in cells with acquired resistance to erlotinib; assay type: cell-based, Human; conditions: EGFR mutant cells resistant to EGFR TKI
[15] = test system: pAkt, cleaved PARP in PC9 cells; experiment: Western analysis of pAkt, pSTAT3 and cleaved PARP; assay type: cell-based, Human; conditions: 24 hours
[16] = test system: pAkt, pSTAT3, cleaved PARP in H1650 cells; experiment: Western analysis of pAkt, pSTAT3 and cleaved PARP; assay type: cell-based, Human; conditions: 24 hours
[17] = test system: pAkt, pSTAT3, cleaved PARP in H1975 cells; experiment: Western analysis of pAkt, pSTAT3 and cleaved PARP; assay type: cell-based, Human; conditions: 24 hours
[18] = test system: pTyr416 Src (pSrc) family in PC9 cells; experiment: Western analysis of Src phosphorylation status; assay type: cell-based, Human; conditions: 24 hours
[19] = test system: pTyr416 Src (pSrc) family in H1650 cells; experiment: Western analysis of Src phosphorylation status; assay type: cell-based, Human; conditions: H1650; increasing concentrations; 24 hours
[20] = test system: pTyr416 Src (pSrc) family in H1975 cells; experiment: Western analysis of Src phosphorylation status; assay type: cell-based, Human; conditions: 24 hours, dasatinib at 50 nmol/L
[21] = test system: A549 cells; experiment: Cell cycle profile and cyclin D/p27 Western analysis; assay type: cell-based, Human; conditions: 24 hours, gefitinib 1 μmol/L, dasatinib 500 nmol/L
[22] = test system: H358 cells; conditions: 24 hours, gefitinib 1 μmol/L, dasatinib 500 nmol/L, or the combination

C#Cc1cccc(Nc2ncnc3cc(OCCOC)c(OCCOC)cc23)c1 [erlotinib]
IC50 [1]: > 2000 nM | IC50 [2]: > 2000 nM | IC50 [3]: > 2000 nM | IC50 ([4]; Homo sapiens, NCI-H1648, 120 h, read-out: EGFR TKI IC50 (Nm)): 75.8 nM | EGFR TKI Sensitivity ([4]; erlotinib, H1648, Adeno, EGFR WT, MTT 120 hours): S (EGFR TKI Sensitivity Definition: Reported IC50 < or = 1 μM) | IC50 ([5]; Homo sapiens, NCI-H292, 120 h, read-out: EGFR TKI IC50 (Nm)): 63.4 nM | EGFR TKI Sensitivity ([5]; erlotinib, H292, Squamous, EGFR WT, MTT 120 hours): S (EGFR TKI Sensitivity Definition: Reported IC50 < or = 1 μM) | IC50 ([6]; Homo sapiens, NCI-H322, 120 h, read-out: EGFR TKI IC50 (Nm)): 135 nM | EGFR TKI Sensitivity ([6]; erlotinib, H322, BAC, EGFR WT, MTT 120 hours): S (EGFR TKI Sensitivity Definition: Reported IC50 < or = 1 μM) | IC50 ([7]; Homo sapiens, NCI-H358, 120 h, read-out: EGFR TKI IC50 (Nm)): 199 nM | EGFR TKI Sensitivity ([7]; erlotinib, H358, BAC, EGFR WT, MTT 120 hours): S (EGFR TKI Sensitivity Definition: Reported IC50 < or = 1 μM) | IC50 [8]: 748 nM | IC50 [9]: > 2000 nM | IC50 [10]: > 2000 nM | IC50 [11]: > 2000 nM | IC50 [12]: > 2000 nM | effect on cell viability [13]: no effect | cell cycle [14]: no observable effect on cell cycle

COc1cc2ncnc(Nc3ccc(F)c(Cl)c3)c2cc1OCCCN1CCOCC1 [gefitinib]
pAkt ([15]; 50 nmol/L): completely inhibits pAkt | PARP cleavage ([15]; gefitinib at 50 nmol/L, dasatinib at increasing concentrations): induces PARP cleavage | pSTAT3 ([16]; H1650, any growth conditions): No effect | PARP cleavage ([16]; H1650 grown in 5% BCS): degree of PARP cleavage is less | pAkt ([16]; H1650 grown in 5% BCS, dasatinib at 50 nmol/L): minimal effect on pAkt | pAkt ([16]; H1650 in low serum with exogenous EGF, 50 nmol/L): inhibit pAkt | PARP cleavage [17]: no PARP cleavage | pAkt or pSTAT3 [17]: neither gefitinib nor dasatinib affects | pSrc ([18]; 250 nmol/L): decrease in pSrc | pSrc ([18]; 1 μmol/L): incomplete | pSrc [19]: incomplete | pSrc [20]: minimal changes | cell cycle profile ([21]; FIG. 12): no effect | cyclin D3 and p27 proteins ([21]; FIG. 13): no changes | G1 cell cycle arrest [22]: G1 cell cycle arrest to the same extent | cyclins D1 and D3 and p27 protein levels [22]: reduced cyclins D1 and D3 and increased p27 protein levels
